Consider 31 compounds from patent US20240109853A1 (Shanghai Yao Yuan Biotechnology Co., Ltd., priority 2020, published 2024).

Read-outs that look alike come from different tables or passages of the source.

Assay [1] deals with ALPK1 (Homo sapiens (Human), UniProt Q96QP1). Nature of the assay: ALPK1 in vitro kinase assay (HTRF of TIFA phosphorylation). The class given is biochemical. Background: In TR-FRET formats the signal depends on donor and acceptor labels being close together.
In assay [2] the test system is ALPK1-dependent NFκB reporter gene activation in HEK293 cells stably expressing an NF-kB reporter (G9 cells). Nature of the assay: NFκB gene reporter alkaline phosphatase assay. Format: cell-based. The settings on record: read-out: NFkB assay IC50. In outline:
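Compounds, serially diluted, were added to attached HEK293-derived G9 reporter cells for 30 min prior to stimulation with the fluoro-heptose ADP agonist. Secreted alkaline phosphatase was quantified colorimetrically using pNPP.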

Chain of ALPK1 (Q96QP1 whole entry): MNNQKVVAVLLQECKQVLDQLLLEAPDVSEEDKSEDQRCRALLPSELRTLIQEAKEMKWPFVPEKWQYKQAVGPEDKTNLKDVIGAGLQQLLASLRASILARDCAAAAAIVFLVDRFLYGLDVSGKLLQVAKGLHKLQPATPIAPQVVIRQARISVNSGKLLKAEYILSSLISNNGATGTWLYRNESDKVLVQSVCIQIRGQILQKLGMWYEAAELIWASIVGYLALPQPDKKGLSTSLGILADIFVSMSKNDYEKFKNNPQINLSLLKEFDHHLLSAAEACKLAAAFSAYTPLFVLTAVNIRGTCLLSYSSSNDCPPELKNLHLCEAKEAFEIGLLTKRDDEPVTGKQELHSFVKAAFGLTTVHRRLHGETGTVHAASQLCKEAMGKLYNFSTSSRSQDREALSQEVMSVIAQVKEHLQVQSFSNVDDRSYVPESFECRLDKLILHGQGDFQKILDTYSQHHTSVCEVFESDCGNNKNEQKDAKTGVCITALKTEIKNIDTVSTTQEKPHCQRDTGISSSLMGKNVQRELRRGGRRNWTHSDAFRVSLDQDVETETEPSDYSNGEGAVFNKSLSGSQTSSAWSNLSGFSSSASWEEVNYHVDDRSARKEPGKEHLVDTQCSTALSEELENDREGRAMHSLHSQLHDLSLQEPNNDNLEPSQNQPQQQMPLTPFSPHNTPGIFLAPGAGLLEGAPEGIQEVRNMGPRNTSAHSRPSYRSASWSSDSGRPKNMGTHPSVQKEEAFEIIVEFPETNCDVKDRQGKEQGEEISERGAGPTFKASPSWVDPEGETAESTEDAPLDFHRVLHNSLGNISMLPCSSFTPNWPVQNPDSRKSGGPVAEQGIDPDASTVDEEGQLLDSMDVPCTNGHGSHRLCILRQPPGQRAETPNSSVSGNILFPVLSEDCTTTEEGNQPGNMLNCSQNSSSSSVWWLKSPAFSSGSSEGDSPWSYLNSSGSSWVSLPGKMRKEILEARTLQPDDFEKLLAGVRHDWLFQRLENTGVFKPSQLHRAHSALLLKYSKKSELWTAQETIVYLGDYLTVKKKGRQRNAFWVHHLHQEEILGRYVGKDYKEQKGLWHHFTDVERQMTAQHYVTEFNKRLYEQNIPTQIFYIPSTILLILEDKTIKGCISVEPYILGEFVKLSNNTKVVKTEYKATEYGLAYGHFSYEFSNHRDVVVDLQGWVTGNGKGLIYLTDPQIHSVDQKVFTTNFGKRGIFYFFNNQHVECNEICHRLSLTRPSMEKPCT

As a reminder, the IC50 is the concentration at which inhibition is half-maximal. Take `CC(C)(c1ccc(Br)cc1)c1csc(NC(=O)NCCS(N)(=O)=O)n1` [Example A131, 2-(3-(4-(2-(4-bromophenyl)propan-2-yl)thiazol-2-yl)ureido)ethanesulfona-mide]: the half-maximal inhibitory concentration (IC50) is 219 nM in assay [1] and 940 nM in assay [2] (Homo sapiens, HEK293).
Taken in the same sequence, the figures for `C#C[C@@](C)(c1ccc(Cl)cc1)c1csc(NC(=O)NC2(CO)CC2)n1` [Example A295, 1-(4-(2-(4-chlorophenyl)but-3-yn-2-yl)thiazol-2-yl)-3-(1-(hydroxymethyl)cyclopro-pyl)urea] were 522 nM and 1790 nM.
For `COc1ccc(C(C)(C)c2csc(NC(=O)NCc3ccc(N4CCC(N(C)C)C4)nc3)n2)cc1` (centres unmarked) [Example A011, 1-((6-(3-(dimethylamino)pyrrolidin-1-yl)pyridin-3-yl)methyl)-3-(4-(2-(4-methoxyphenyl)propan-2-yl)thiazol-2-yl)urea], the IC50 in assay [1] was found to be 49 nM; in assay [2] (Homo sapiens, HEK293) it was 1370 nM.
Consider `CC(C)(c1ccc(I)cc1)c1csc(NC(=O)NCc2ccc(N3CCNCC3)cc2)n1` [Example A067, 1-(4-(2-(4-iodophenyl)propan-2-yl)thiazol-2-yl)-3-(4-(piperazin-1-yl)benzyl)urea], for which the IC50 in assay [1] amounted to 28 nM; in assay [2] (Homo sapiens, HEK293) it was 1110 nM.
For `C#CC(C)(c1ccc(Br)cc1)c1csc(NC(=O)NCC2(O)CCNCC2)n1` (centres unmarked) [Example A238, 1-(4-(2-(4-bromophenyl)but-3-yn-2-yl)thiazol-2-yl)-3-((4-hydroxypiperidin-4-yl)methyl)urea], the IC50 in assay [1] is 19 nM; in assay [2] (Homo sapiens, HEK293), 27000 nM.
Taken in the same sequence, the figures for `COc1ccc(C(C)(C)c2csc(NC(=O)NCc3ccc(C(=O)NC4CCN(C)CC4)nc3)n2)cc1` [Example A120, 5-((3-(4-(2-(4-methoxyphenyl)propan-2-yl)thiazol-2-yl)ureido)methyl)-N-(1-methylpiperidin-4-yl)picolinamide] were 53 nM and 990 nM.
As to `COc1ccc(C(C)(C)c2csc(NC(=O)NCc3cc(F)c(N4CCNCC4)c(F)c3)n2)cc1` [Example A040, 1-(3,5-difluoro-4-(piperazin-1-yl)benzyl)-3-(4-(2-(4-methoxyphenyl)propan-2-yl)thiazol-2-yl)urea], the 50% inhibitory concentration (IC50) in assay [1] amounted to 45 nM; in assay [2] (Homo sapiens, HEK293), 500 nM.
Taken in the same sequence, the figures for `CC(C)Oc1cc(CNC(=O)Nc2nc(C(C)(C)c3ccc(Br)cc3)cs2)ccc1N1CCNCC1` [Example A221, 1-(4-(2-(4-bromophenyl)propan-2-yl)thiazol-2-yl)-3-(3-isopropoxy-4-(piperazin-1-yl)benzyl)urea] were 144 nM and 2380 nM.
Regarding `CC(C)(c1ccc(Br)cc1)c1csc(NC(=O)NCc2ccc(F)c(Cl)c2)n1` [Example A017, 1-(4-(2-(4-bromophenyl)propan-2-yl)thiazol-2-yl)-3-(3-chloro-4-fluorobenzyl)urea], the 50% inhibitory concentration (IC50) turned out to be 204 nM in assay [1] and 970 nM in assay [2] (Homo sapiens, HEK293).
Turning to `NC1CCN(c2ccc(CNC(=O)Nc3nc(C4(c5ccc(Br)cc5)CCCC4)cs3)cc2)CC1` [Example A191, 1-(4-(4-aminopiperidin-1-yl)benzyl)-3-(4-(1-(4-bromophenyl)cyclopent-yl)thiazol-2-yl)urea], the IC50 in assay [1] is 80 nM; in assay [2] (Homo sapiens, HEK293), 6910 nM.
`C#CC(CC)(c1ccc(Br)cc1)c1csc(NC(=O)NCCO)n1` (centres unmarked) [Example A157, 1-(4-(3-(4-bromophenyl)pent-1-yn-3-yl)thiazol-2-yl)-3-(2-hydroxyethyl)urea]: the IC50 in assay [1] is 22 nM; in assay [2] (Homo sapiens, HEK293), 1360 nM.
For `CC(C)(c1ccc(Br)cc1)c1csc(NC(=O)NCc2cncnc2)n1` [Example A004, 1-(4-(2-(4-bromophenyl)propan-2-yl)thiazol-2-yl)-3-(pyrimidin-5-ylmethyl)urea], the IC50 in assay [1] was 240 nM; in assay [2] (Homo sapiens, HEK293) it was 2030 nM.
On to `CCN(CC)CCCNC(=O)Nc1nc(C(C)(C)c2ccc(OC)cc2)cs1` [Example A146, 1-(3-(diethylamino)propyl)-3-(4-(2-(4-methoxyphenyl)propan-2-yl)thiazol-2-yl)urea], for which the 50% inhibitory concentration (IC50) in assay [1] stood at 124 nM; in assay [2] (Homo sapiens, HEK293) it was 3070 nM.
As to `COc1ccc(C(C)(C)c2csc(NC(=O)NCCN3CCC(N)C3)n2)cc1` (centres unmarked) [Example A227, 1-(2-(3-aminopyrrolidin-1-yl)ethyl)-3-(4-(2-(4-methoxyphenyl)propan-2-yl)thiazol-2-yl)urea], the IC50 in assay [1] was found to be 138 nM; in assay [2] (Homo sapiens, HEK293) it was 3120 nM.
For the compound `CCCN1CCN(c2ccc(CNC(=O)Nc3nc(C(C)(C)c4ccc(OC)cc4)cs3)cc2C(N)=O)CC1` [Example A116, 5-((3-(4-(2-(4-methoxyphenyl)propan-2-yl)thiazol-2-yl)ureido)methyl)-2-(4-propylpiperazin-1-yl)benzamide], the IC50 was 72 nM in assay [1] and 720 nM in assay [2] (Homo sapiens, HEK293).
For the compound `C#CC(C)(c1ccc(Cl)cc1)c1csc(NC(=O)NCCO)n1` (centres unmarked) [Example A174, 1-(4-(2-(4-chlorophenyl)but-3-yn-2-yl)thiazol-2-yl)-3-(2-hydroxyethyl)urea], the IC50 in assay [1] is 34 nM; in assay [2] (Homo sapiens, HEK293), 310 nM.
On to `CC(C)(c1ccc(Br)cc1)c1csc(NC(=O)NCc2cnc(N3CCNCC3)c(F)c2)n1` [Example A038, 1-(4-(2-(4-bromophenyl)propan-2-yl)thiazol-2-yl)-3-((5-fluoro-6-(piperazin-1-yl)pyridin-3-yl)methyl)urea], for which the IC50 came to 30 nM in assay [1] and 1660 nM in assay [2] (Homo sapiens, HEK293).
The like results for `COc1ccc(C(C)(C)c2csc(NC(=O)NCc3ccc(NC4CCN(C)CC4)nc3)n2)cc1` [Example A019, 1-(4-(2-(4-methoxyphenyl)propan-2-yl)thiazol-2-yl)-3-((6-((1-methylpiperidin-4-yl)amino)pyridin-3-yl)methyl)urea] were, in that order, 32 nM and 1290 nM.
In the case of `CC(C)(c1ccc(Br)cc1)c1csc(NC(=O)NCCCCN)n1` [Example A028, 1-(4-aminobutyl)-3-(4-(2-(4-bromophenyl)propan-2-yl)thiazol-2-yl)urea], the IC50 amounted to 53 nM in assay [1] and 2560 nM in assay [2] (Homo sapiens, HEK293).
For `[2H]c1sc(NC(=O)NCCO)nc1[C@](C)(C#C)c1ccc(Cl)cc1` [Example A300, 1-(4-(2-(4-chlorophenyl)but-3-yn-2-yl)thiazol-2-yl)-3-(2-hydroxyethyl)urea], the 50% inhibitory concentration (IC50) in assay [1] was 341 nM; in assay [2] (Homo sapiens, HEK293), 3010 nM.
As for `COc1ccc(C(C)(C)c2csc(NC(=O)NCc3ccc(C(=O)NC4CCN(C)CC4)nc3)n2)cc1` [Example A015, 5-((3-(4-(2-(4-methoxyphenyl)propan-2-yl)thiazol-2-yl)ureido)methyl)-N-(1-methylpiperidin-4-yl)picolinamide], the IC50 was 24 nM in assay [1] and 880 nM in assay [2].
In the case of `COc1ccc(C(C)(C)c2csc(NC(=O)NCc3ccc(C(=O)NC4CCN(C)CC4)cc3)n2)cc1` [Example A018, 4-((3-(4-(2-(4-methoxyphenyl)propan-2-yl)thiazol-2-yl)ureido)methyl)-N-(1-methylpiperidin-4-yl)benzamide], the concentration for half-maximal inhibition (IC50) in assay [1] turned out to be 29 nM; in assay [2] (Homo sapiens, HEK293) it was 1280 nM.
For the compound `C#C[C@@](C)(c1ccc(Cl)cc1)c1csc(NC(=O)NC[C@H](O)CO)n1` [Example A304, 1-(4-(2-(4-chlorophenyl)but-3-yn-2-yl)thiazol-2-yl)-3-((S)-2,3-dihydroxypropyl)urea], the IC50 in assay [1] came out at 90 nM; in assay [2] (Homo sapiens, HEK293), 520 nM.
Take `CC(C)(c1ccc(Br)cc1)c1csc(NC(=O)NCCF)n1` [Example A020, 1-(4-(2-(4-bromophenyl)propan-2-yl)thiazol-2-yl)-3-(2-fluoroethyl)urea]: the IC50 in assay [1] was found to be 144 nM; in assay [2] (Homo sapiens, HEK293), 6790 nM.
Regarding `CC(C)(c1ccc(Br)cc1)c1csc(NC(=O)NCCCN2CCNCC2)n1` [Example A102, 1-(4-(2-(4-bromophenyl)propan-2-yl)thiazol-2-yl)-3-(3-(piperazin-1-yl)propyl)urea], the IC50 in assay [1] came out at 90 nM; in assay [2] (Homo sapiens, HEK293), 710 nM.
On to `CN(C)C1CCN(c2ccc(CNC(=O)Nc3nc(C(C)(C)c4ccc(Br)cc4)cs3)cn2)C1` (centres unmarked) [Example A106, 1-(4-(2-(4-bromophenyl)propan-2-yl)thiazol-2-yl)-3-((6-(3-(dimethylamino)pyrrolidin-1-yl)pyridin-3-yl)methyl)urea], for which the 50% inhibitory concentration (IC50) in assay [1] is 48 nM; in assay [2] (Homo sapiens, HEK293), 6720 nM.
As to `CC(C)(c1ccc(Br)cc1)c1csc(NC(=O)NCc2ccc(N3CCC(N)CC3)cc2)n1` [Example A204, 1-(4-(4-aminopiperidin-1-yl)benzyl)-3-(4-(2-(4-bromophenyl)propan-2-yl)thiazol-2-yl)urea], the IC50 is 9 nM in assay [1] and 1890 nM in assay [2] (Homo sapiens, HEK293).
In the case of `COc1ccc(C(C)(C)c2csc(NC(=O)NCCCN(C)C)n2)cc1` [Example A145, 1-(3-(dimethylamino)propyl)-3-(4-(2-(4-methoxyphenyl)propan-2-yl)thiazol-2-yl)urea], the IC50 in assay [1] amounted to 216 nM; in assay [2] (Homo sapiens, HEK293), 4490 nM.
Taken in the same sequence, the figures for `C#CC(C)(c1ccc(Cl)cc1)c1csc(NC(=O)N2CC(CN3CCC(N)CC3)C2)n1` (centres unmarked) [Example A263, 3-((4-aminopiperidin-1-yl)methyl)-N-(4-(2-(4-chlorophenyl)but-3-yn-2-yl)thiazol-2-yl)azetidine-1-carboxamide] were 39 nM and 1440 nM.
With `C#CC(C)(c1ccc(Br)cc1)c1csc(NC(N)=O)n1` (centres unmarked) [Example A162, 1-(4-(2-(4-bromophenyl)but-3-yn-2-yl)thiazol-2-yl)urea], the IC50 in assay [1] was 38 nM; in assay [2] (Homo sapiens, HEK293), 180 nM.
For `COc1ccc(C(C)(C)c2csc(NC(=O)NCCCC(=O)NC3CCN(C)CC3)n2)cc1` [Example A070, 4-(3-(4-(2-(4-methoxyphenyl)propan-2-yl)thiazol-2-yl)ureido)-N-(1-methylpiperidin-4-yl)butanamide], the IC50 in assay [1] was found to be 140 nM; in assay [2] (Homo sapiens, HEK293), 16900 nM.
